Source: patent US10905744B2, “Pharmaceutical formulations for the oral delivery of peptide drugs” (Cyprumed GmbH, priority 2015, dated 2021)

Assays:
[1] = Compatibility of absorption enhancers with trace elements: dissolution in aqueous medium, visual examination (Example 1); assay type: physicochemical
Description: Solid dry powder mixtures of desmopressin acetate, zinc sulfate or iron(III) chloride, and different absorption enhancers were prepared and dissolved in 2 ml aqua purificata.

[2] = GLP-1 peptide formulations with SNAC and trace elements: dissolution in aqua purificata, visual (Example 4); assay type: physicochemical; settings: liraglutide 1.8 mg/ml, SNAC 20 mg, trace element 2 mg, disodium phosphate dihydrate, 2 ml aqua purificata
Description: Compositions comprising a GLP-1 peptide, a complexing agent (disodium phosphate dihydrate), the absorption enhancer N-(8-[2-hydroxybenzoyl]amino)caprylic acid (SNAC) and various trace elements or metal salts were prepared and dissolved in 2 ml of aqua purificata and examined visually.

trypsin = biological target: T1, trypsin (Bos taurus, UniProt P00760); assay: Trypsin inhibition, BAPNA substrate, absorbance at 405 nm (Examples 10-12, 20-22, 25, 26, 28, 29, 33); assay type: biochemical
T1 construct: gene PRSS1
T1 sequence (P00760 24-246): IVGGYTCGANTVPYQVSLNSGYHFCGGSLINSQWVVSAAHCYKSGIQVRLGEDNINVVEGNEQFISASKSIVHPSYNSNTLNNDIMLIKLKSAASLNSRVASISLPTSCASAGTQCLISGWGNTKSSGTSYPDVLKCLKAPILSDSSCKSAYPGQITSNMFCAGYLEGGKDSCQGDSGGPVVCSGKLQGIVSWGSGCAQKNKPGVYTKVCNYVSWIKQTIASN
Description: 100 mg/ml copper gluconate in 50 mM TRIS pH 7; pH was adjusted to pH 7; stock solution was diluted to the following concentrations: 50 mg/ml, 25 mg/ml, 12.5 mg/ml, 5 mg/ml, 6.25 mg/ml, 3.125 mg/ml, 2.5 mg/ml, 1.25 mg/ml, 0.625 mg/ml, 0.313 mg/ml, 0.156 mg/ml and 0.078 mg/ml
0.5 mg/mL Benzoyl-Arginine p-nitroanilide (BAPNA)
100 μl 50 mM TRIS pH 7+50 μL Trypsin Stock+50 μL BAPNA Stock
100 μl Copper solution (according to the above described dilutions)+50 μL Trypsin Stock+50 μL BAPNA Stock
Absorption was measured after 15 minutes at 405 nm.
Values were corrected (subtraction of blank).
100 mg/ml Zinc bisglycinate in 50 mM TRIS pH 7; pH was adjusted to pH 7; stock solution was diluted to the following concentrations: 50 mg/ml and 25 mg/ml
100 μl Zinc solution (according to the above described dilutions)+50 μL Trypsin Stock+50 μL BAPNA Stock
10 mg/ml iron gluconate in 50 mM TRIS pH 7; pH was adjusted to pH 7; stock solution was diluted to the following concentrations: 5 mg/ml, 2.5 mg/ml, 1.25 mg/ml and 0.625 mg/ml
100 μl Iron solution (according to the above described dilutions)+50 μL Trypsin Stock+50 μL BAPNA Stock
Absorption was measured directly at 405 nm.
Benzoyl-Arginine p-nitroanilide (BAPNA): 0.5 mg/ml in 50 mM TRIS pH 7 (centrifuged and supernatant used as stock solution)
Trypsin: […] in 50 mM TRIS pH 7
1 mg/mL iron gluconate in 10 mM TRIS pH 7 (iron content=12%), 0.12 mg/ml iron
12 mg/mL copper lysinate in 10 mM TRIS pH 7 (copper content=3%), 0.12 mg/ml copper
100 μl of the respective salt solution+50 μL Trypsin Stock+50 μL BAPNA Stock
Experiments were carried out at pH 7, 50 mM TRIS.
0.025 mg/ml Trypsin, 0.125 mg/mL Benzoyl-Arginine p-nitroanilide (BAPNA.) Lauryl glutamate:
0.25 mg/ml; copper content (as copper(II)gluconate): 0.035 mg/ml.
Adsorption measurement at 405 nm
0.025 mg/ml Trypsin, 0.125 mg/mL Benzoyl-Arginine p-nitroanilide (BAPNA). lauryl-glutamate:
Absorption measurement at 405 nm
0.025 mg/ml Trypsin, 0.125 mg/mL Benzoyl-Arginine p-nitroanilide (BAPNA). Capryl-glucoside:
Copper sulfate stock solution: 1 mg/ml of copper sulfate was dissolved in 50 mM TRIS pH 7. Copper tartrate stock solution: 1 mg/ml of copper tartrate was dispersed in 50 mM TRIS pH 7 and moderately stirred for 5 minutes. The suspension was then centrifuged at 3′000 rpm for 10 minutes, to separate the insoluble salt. The supernatant was used as stock solution for the experiments.
Zinc orotate stock solution: 1 mg/ml of zinc orotate was dispersed in 50 mM TRIS pH 7 and moderately stirred for 5 minutes. The suspension was then centrifuged at 3′000 rpm for 10 minutes, to separate the insoluble salt. The supernatant was used as stock solution for the experiments.
100 μL of the respective salt solution stock+50 μL Trypsin Stock+50 μL BAPNA Stock
Control: 100 μL of 50 mM TRIS pH 7+50 μL Trypsin Stock+50 μL BAPNA Stock
Final concentrations of protease and substrate were 0.025 mg/ml Trypsin, 0.125 mg/mL
50 μl manganese sulfate+50 μl copper gluconate+50 μL Trypsin Stock+50 μL BAPNA Stock
Absorption measurement at 405 nm; final pH in all solutions was monitored to be pH 7.
3 mg/ml SiO2—suspended in 50 mM TRIS pH 7 and centrifuged; supernatant was used for experiments.
50 μl SiO2+50 μl 50 mM TRIS pH 7+50 μL Trypsin Stock+50 μL BAPNA Stock
50 μl copper gluconate+50 μl SiO2+50 μL Trypsin Stock+50 μL BAPNA Stock
50 μl iron gluconate+50 μl SiO2+50 μL Trypsin Stock+50 μL BAPNA Stock
120 μl 50 mM TRIS pH 7+50 μL Trypsin Stock+50 μL BAPNA Stock
80 μl copper gluconate+40 μl 50 mM TRIS pH 7+50 μL Trypsin Stock+50 μL BAPNA Stock
40 μl copper gluconate+80 μl 50 mM TRIS pH 7+50 μL Trypsin Stock+50 μL BAPNA Stock
80 μl iron gluconate+40 μl 50 mM TRIS pH 7+50 μL Trypsin Stock+50 μL BAPNA Stock
40 μl iron gluconate+80 μl 50 mM TRIS pH 7+50 μL Trypsin Stock+50 μL BAPNA Stock
80 μl iron gluconate+40 μl copper gluconate+50 μL Trypsin Stock+50 μL BAPNA Stock

chymotrypsin = chymotrypsin (Bos taurus, UniProt P00766); assay: Chymotrypsin inhibition, BTPNA substrate, absorbance at 405 nm (Examples 9, 13-19, 23, 24, 27, 30, 31)
Description: CuSO4.5H2O dilutions in 10 mM TRIS buffer pH 7 to 10 mM, 5 mM, 2.5 mM 1.25 mM Benzoyl-Tyrosine p-nitroanilide (BTPNA): 0.5 mg/mL BTPNA in Acetone
Study: • (1) 100 μl buffer (10 mM TRIS, pH=7)+50 μl Chymotrypsin Stock+50 μl BTPNA • (2) 80 μl buffer (10 mM TRIS, pH=7)+20 μl CuSO4 stock (10 mM)+50 μl Chymotrypsin Stock+50 μl BTPNA • (3) 80 μl buffer (10 mM TRIS, pH=7)+20 μl CuSO4 dilut. (5 mM)+50 μl Chymotrypsin Stock+50 μl BTPNA • (4) 80 μl buffer (10 mM TRIS, pH=7)+20 μl CuSO4 stock (2.5 mM)+50 μl Chymotrypsin Stock+50 μl BTPNA • (5) 80 μl buffer (10 mM TRIS, pH=7)+20 μl CuSO4 dilut. (1.25 mM)+50 μl Chymotrypsin Stock+50 μl BTPNA
Final copper concentrations: 1 mM, 0.5 mM, 0.25 mM, 0.125 mM.
10 mM CuSO4 and Copper gluconate stock solution were diluted 1:1 with 10 mM TRIS buffer pH 7
Study: • (1) 100 μl buffer (10 mM TRIS, pH=7)+50 μl Chymotrypsin Stock+50 μl BTPNA • (2) 80 μl buffer (10 mM TRIS, pH=7)+20 μl CuSO4 dil. (5 mM)+50 μl Chymotrypsin Stock+50 μl BTPNA • (3) 80 μl buffer (10 mM TRIS, pH=7)+20 μl Copper gluconate dilut. (5 mM)+50 μl Chymotrypsin Stock+50 μl BTPNA • (4) 100 μl Cu-bisglycinate stock (0.5 mM)+50 μl Chymotrypsin Stock+50 μl BTPNA
10 mM CuSO4 stock solution was diluted 1:1 with 10 mM TRIS Puffer pH 7
Study: • (1) 30 μl buffer (10 mM TRIS, pH=7)+20 μl CuSO4 dil. (5 mM)+100 μl Chymotrypsin Stock: 30 min. incubation, then addition of 50 μl BTPNA • (2) 30 μl buffer (10 mM TRIS, pH=7)+100 μl Chymotrypsin Stock: 30 min. incubation, then addition of 20 μl CuSO4 dil. (5 mM)+50 μl BTPNA
Final copper concentration: 0.5 mM
Iron(II)-bisglycinate solution containing 1.86 mM of iron in 10 mM TRIS buffer pH 7 was prepared
Cu(II)-gluconate solution containing 2.0 mM of copper in 10 mM TRIS buffer pH 7 was prepared
Study: • (1) 100 μl buffer (10 mM TRIS, pH=7)+50 μl Chymotrypsin Stock+50 μl BTPNA • (2) 100 μl iron(II)-bisglycinate+50 μl Chymotrypsin Stock+50 μl BTPNA • (3) 100 μl copper(II)-gluconate+50 μl Chymotrypsin Stock+50 μl BTPNA
Values were corrected (subtraction of blank). Inhibition was calculated by setting the absorption value of (1) at each time-point as 100%.
Iron(II)-bisglycinate solution containing 0.46 mM of iron in 10 mM TRIS buffer pH 7 was prepared
Cu(II)- bisglycinate solution containing 0.46 mM of copper in 10 mM TRIS buffer pH 7 was prepared
Study: • (1) 100 μl buffer (10 mM TRIS, pH=7)+50 μl Chymotrypsin Stock+50 μl BTPNA • (2) 100 μl iron(II)-bisglycinate+50 μl Chymotrypsin Stock+50 μl BTPNA • (3) 100 μl copper(II)-bisglycinate+50 μl Chymotrypsin Stock+50 μl BTPNA
Values were corrected (subtraction of blank). Inhibition (%) was calculated by setting the absorption value of (1) at each time-point as 100% degradation.
Values were corrected (subtraction of blank). pH was confirmed to be pH 7 after the experiment.
0.025 mg/ml Chymotrypsin, 0.05 mg/mL Benzoyl-Tyrosine p-nitroanilide (BTPNA). Lauryl glutamate: 0.25 mg/ml; copper (as copper gluconate): 0.035 mg/ml.
0.025 mg/ml Chymotrypsin, 0.05 mg/mL Benzoyl-Tyrosine p-nitroanilide (BTPNA). Lauryl glutamate: 0.25 mg/ml; iron (as iron gluconate): 0.03 mg/ml.
100 μl 50 mM TRIS pH 7+50 μL Chymotrypsin Stock+50 μL BTPNA Stock
50 μl Beta-cyclodextrin+50 μl 50 mM TRIS pH 7+50 μL Chymotrypsin Stock+50 μL BTPNA Stock
50 μl copper gluconate+50 μl 50 mM TRIS pH 7+50 μL Chymotrypsin Stock+50 μL BTPNA Stock
50 μl copper gluconate+50 μl Beta-cyclodextrin+50 μL Chymotrypsin Stock+50 μL BTPNA Stock
50 μl copper gluconate+50 μl trisodium phosphate+50 μL Chymotrypsin Stock+50 μL BTPNA Stock
50 μl iron gluconate+50 μl trisodium phosphate+50 μL Chymotrypsin Stock+50 μL BTPNA Stock
Experiments were carried out at pH 7 in 50 mM TRIS buffer.

[3] = desmopressin acetate + FeCl3 5 mg/ml + absorption enhancer 10 mg/ml in 2 ml aqua purificata
[4] = desmopressin acetate + ZnSO4 5 mg/ml + absorption enhancer 10 mg/ml in 2 ml aqua purificata
[5] = Example 16, 0 minutes, metal ion 0.015 mg/ml ([…]), 10 mM TRIS pH 7
[6] = Example 26, 1 mg/ml stocks (supernatant for copper tartrate and zinc orotate), pH 7, 50 mM TRIS, FIG. 17

| Dissolution in aqueous medium (2 ml) [1, 3] | Dissolution in aqueous medium (2 ml) [1, 4] | Molecule | Dissolution in aqua purificata [2] | also measured |
| --- | --- | --- | --- | --- |
| – | Clear solution | O=C(O)CC(O)(CC(=O)O)C(=O)O [Citric acid] | – | – |
| – | – | O=S(=O)([O-])[O-].[Cu+2] [Copper sulfate] | precipitation | trypsin inhibition (trypsin; pH 7): strongly inhibited; inhibition of chymotrypsin (chymotrypsin; Example 9, final copper 1, 0.5, 0.25, 0.125 mM, 10 mM TRIS pH 7, FIG. 2): inhibits the proteolytic enzyme chymotrypsin in a dose dependent manner; influence of copper pre-incubation on chymotrypsin activity (chymotrypsin; Example 14, CuSO4, final copper 0.5 mM, 30 min pre-incubation, FIG. 7): increases the chymotrypsin inhibitory activity |
| – | – | NCC(=O)[O-].NCC(=O)[O-].[Cu+2] [Copper-bisglycinate] | – | Inhibition % (chymotrypsin; [5]): 0% |
| – | – | O=C(O)CN(CCN(CC(=O)O)CC(=O)O)CC(=O)O [EDTA] | – | chymotrypsin inhibition (chymotrypsin; Example 18, stocks: copper gluconate 10 mM, EDTA 5 mM, sodium caprylate 4 mg/ml, pH 7, FIG. 9): can inhibit chymotrypsin; effect on chymotrypsin inhibition (chymotrypsin; Example 19, EDTA added to a solution of copper gluconate, Tween 20 and sodium caprylate, FIG. 10): positive effect on chymotrypsin inhibition; chymotrypsin inhibition (chymotrypsin; Example 31, stocks […] copper(II)gluconate, 1.25 mM EDTA, pH 7, 10 mM TRIS, FIG. 22): can be inhibited |
| – | – | [Cl][Fe]([Cl])[Cl] [Fe(III)chlorid, iron(III) chloride] | precipitation | – |
| – | – | NCC(=O)[O-].NCC(=O)[O-].[Fe+2] [Iron bisglycinate] | Clear brownish solution | Inhibition % (chymotrypsin; Example 15, 0 minutes, metal ion Fe 0.06 mg/ml (0.92 mM), Cu 0.065 mg/ml (1.0 mM), 10 mM TRIS pH 7): 0%; Inhibition % (chymotrypsin; Example 15, 15 minutes, metal ion Fe 0.92 mM, Cu 1.0 mM): 69%; Inhibition % (chymotrypsin; Example 15, 30 minutes, metal ion Fe 0.92 mM, Cu 1.0 mM): 62%; Inhibition % (chymotrypsin; Example 15, 45 minutes, metal ion Fe 0.92 mM, Cu 1.0 mM): 56%; Inhibition % (chymotrypsin; Example 15, 60 minutes, metal ion Fe 0.92 mM, Cu 1.0 mM): 52%; Inhibition % (chymotrypsin; [5]): 0% |
| Precipitation | Precipitation | CCCCCCCCCC(=O)[O-].[Na+] [Sodium caprate] | – | – |
| Precipitation | Precipitation | CCCCCCCC(=O)[O-].[Na+] [Sodium caprylate] | – | – |
| Clear solution | Clear solution | CCCCCCCCCCCCOS(=O)(=O)[O-].[Na+] [Sodium dodecyl sulfate] | – | – |
| – | – | CC(=O)[O-].CC(=O)[O-].[Zn+2] [Zinc acetate] | precipitation | – |
| – | – | [Cl-].[Cl-].[Zn+2] [ZnCl2, zinc chloride] | precipitation | – |
| – | – | O=S(=O)([O-])[O-].[Zn+2] [ZnSO4, zinc sulfate] | precipitation | – |
| – | – | O=C([O-])C(O)C(O)C(=O)[O-].[Cu+2] (stereo not shown) [copper tartrate] | – | trypsin inhibition (trypsin; [6]): show trypsin inhibitory properties in vitro |
| – | – | NCCCC[C@H](N)C(=O)O.NCCCC[C@H](N)C(=O)O.[Cu] [copper(II)lysinate] | – | trypsin inhibition (trypsin; Example 20, solutions 1 mg/mL iron gluconate, 1 mg/mL copper gluconate, 12 mg/mL copper lysinate, FIG. 11): can be inhibited |
| Clear solution | Clear solution | CCCCCCCCCCCCO[C@@H]1O[C@H](CO)[C@@H](O[C@H]2O[C@H](CO)[C@@H](O)[C@H](O)[C@H]2O)[C@H](O)[C@H]1O [n-Dodecyl-b-D-maltoside] | – | – |
| Clear solution | Clear solution | CCCCCCCCO[C@@H]1O[C@H](CO)[C@@H](O)[C@H](O)[C@H]1O [n-Octyl-b-D-glucopyranoside] | – | – |
| – | – | NCC(=O)[O-].NCC(=O)[O-].[Zn+2] [zinc bisglycinate] | – | inhibition of trypsin (trypsin; pH 7): inhibits the proteolytic enzyme trypsin in a dose dependent manner |
| – | – | Copper orotate | Clear solution | – |
| – | – | Zinc carnosine | Clear solution | – |
| – | – | Zinc orotate | Clear solution | trypsin inhibition (trypsin; [6]): show trypsin inhibitory properties in vitro |
| – | – | Zinc picolinate | Clear solution | – |
| – | – | lauryl-glutamate | – | trypsin inhibition (trypsin; Example 21, lauryl glutamate […], copper […], pH 7, 50 mM TRIS, FIG. 12): can be inhibited; trypsin inhibition (trypsin; Example 22, lauryl-glutamate […], iron 0.03 mg/ml, pH 7, 50 mM TRIS, FIG. 13): can be inhibited |

| Molecule | Dissolution in aqueous medium (2 ml) [1, 3] | Dissolution in aqueous medium (2 ml) [1, 4] | Dissolution in aqua purificata [2] | also measured |
| --- | --- | --- | --- | --- |
| C[C@H](CCC(=O)O)[C@H]1CC[C@H]2[C@@H]3[C@H](O)C[C@@H]4C[C@H](O)CC[C@]4(C)[C@H]3C[C@H](O)[C@]12C [Cholic acid] | Precipitation | Precipitation | – | – |
| CCCCCCCCCCCC(=O)OC(CC(=O)O)C[N+](C)(C)C.[Cl-] (stereo not shown) [Lauroyl carnitine HCl] | Clear solution | Clear solution | – | – |
| C[C@H](CCC(=O)[O-])[C@H]1CC[C@H]2[C@@H]3[C@H](O)C[C@@H]4C[C@H](O)CC[C@]4(C)[C@H]3C[C@H](O)[C@]12C.[Na+] [Sodium cholate] | Precipitation | Precipitation | – | – |
